Experimental data published in the supplement of paper PMC10307832.

Key:
Assay in all cases: relative viability (nuclei count vs DMSO), 5 days (fraction); higher = more cells survive
[1] = compound: C[C@@H](N)c1ccc(C(=O)Nc2ccnc3[nH]ccc23)cc1 + CC(=O)c1c(C)c2cnc(Nc3ccc(N4CCNCC4)cn3)nc2n(C2CCCC2)c1=O [Palbociclib] (partner 0.5 µM)
Outline: (§1)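 Relative viability is defined as nuclei in treated wells over nuclei in vehicle wells. Duplicate plates were run and medians reported. Lung cancer cell lines in 1536-well plates were dosed by pin tool one day after seeding, with one drug or with a fixed anchor-drug dose plus five library-drug doses (not always all listed) in √10 steps, and nuclei were counted after 5 days.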

[2] = compound: C[C@@H](N)c1ccc(C(=O)Nc2ccnc3[nH]ccc23)cc1 + C[C@]1(O)C[C@@H](c2nc(-c3ccc4ccc(-c5ccccc5)nc4c3)c3c(N)nccn32)C1 [Linsitinib] (partner 1 µM)
Outline: as §1

[3] = compound: C[C@@H](N)c1ccc(C(=O)Nc2ccnc3[nH]ccc23)cc1 + O=C(CCCCCCC(=O)Nc1ccccc1)NO [Vorinostat] (partner 1 µM)
Outline: as §1

[4] = compound: O[C@H]1CC[C@H](Nc2ncc3nc(Nc4c(F)cc(F)cc4F)n([C@H]4CCOC4)c3n2)CC1 [Tanzisertib] + C[C@]1(O)C[C@@H](c2nc(-c3ccc4ccc(-c5ccccc5)nc4c3)c3c(N)nccn32)C1 [Linsitinib] (partner 1 µM)
Outline: as §1

EMC-BAC-2
relative viability ([1]; first compound 0.04 µM): 0.473
relative viability ([1]; first compound 0.1265 µM): 0.501
relative viability ([1]; first compound 0.4 µM): 0.474
relative viability ([1]; first compound 1.265 µM): 0.48
relative viability ([1]; first compound 4 µM): 0.436
relative viability ([2]; first compound 0.04 µM): 0.84
relative viability ([2]; first compound 0.1265 µM): 0.846
relative viability ([2]; first compound 0.4 µM): 0.738
relative viability ([2]; first compound 1.265 µM): 0.827
relative viability ([2]; first compound 4 µM): 0.613
relative viability ([3]; first compound 0.04 µM): 0.314
relative viability ([3]; first compound 0.1265 µM): 0.526
relative viability ([3]; first compound 0.4 µM): 0.427
relative viability ([3]; first compound 1.265 µM): 0.341
relative viability ([3]; first compound 4 µM): 0.395
relative viability ([4]; first compound 0.08 µM): 0.825
relative viability ([4]; first compound 0.253 µM): 0.806
relative viability ([4]; first compound 0.8 µM): 0.825
relative viability ([4]; first compound 2.53 µM): 0.743
relative viability ([4]; first compound 8 µM): 0.771

NCI-H520
relative viability ([1]; first compound 0.04 µM): 0.218
relative viability ([1]; first compound 0.1265 µM): 0.231
relative viability ([1]; first compound 0.4 µM): 0.263
relative viability ([1]; first compound 1.265 µM): 0.254
relative viability ([1]; first compound 4 µM): 0.225
relative viability ([2]; first compound 0.04 µM): 0.97
relative viability ([2]; first compound 0.1265 µM): 1.07
relative viability ([2]; first compound 0.4 µM): 1.05
relative viability ([2]; first compound 1.265 µM): 1.26
relative viability ([2]; first compound 4 µM): 1.02
relative viability ([3]; first compound 0.04 µM): 0.862
relative viability ([3]; first compound 0.1265 µM): 0.757
relative viability ([3]; first compound 0.4 µM): 0.813
relative viability ([3]; first compound 1.265 µM): 0.714
relative viability ([3]; first compound 4 µM): 0.693
relative viability ([4]; first compound 0.08 µM): 1.19
relative viability ([4]; first compound 0.253 µM): 1.11
relative viability ([4]; first compound 0.8 µM): 0.941
relative viability ([4]; first compound 2.53 µM): 0.832
relative viability ([4]; first compound 8 µM): 0.927

NCI-H1755
relative viability ([1]; first compound 0.04 µM): 0.432
relative viability ([1]; first compound 0.1265 µM): 0.436
relative viability ([1]; first compound 0.4 µM): 0.437
relative viability ([1]; first compound 1.265 µM): 0.407
relative viability ([1]; first compound 4 µM): 0.367
relative viability ([2]; first compound 0.04 µM): 1.03
relative viability ([2]; first compound 0.1265 µM): 0.977
relative viability ([2]; first compound 0.4 µM): 0.947
relative viability ([2]; first compound 1.265 µM): 0.86
relative viability ([2]; first compound 4 µM): 0.716
relative viability ([3]; first compound 0.04 µM): 0.672
relative viability ([3]; first compound 0.1265 µM): 0.737
relative viability ([3]; first compound 0.4 µM): 0.75
relative viability ([3]; first compound 1.265 µM): 0.811
relative viability ([3]; first compound 4 µM): 0.826
relative viability ([4]; first compound 0.08 µM): 0.989
relative viability ([4]; first compound 0.253 µM): 0.997
relative viability ([4]; first compound 0.8 µM): 0.975
relative viability ([4]; first compound 2.53 µM): 0.953
relative viability ([4]; first compound 8 µM): 0.892

NCI-H1993
relative viability ([1]; first compound 0.04 µM): 0.688
relative viability ([1]; first compound 0.1265 µM): 0.74
relative viability ([1]; first compound 1.265 µM): 0.595
relative viability ([1]; first compound 4 µM): 0.607
relative viability ([2]; first compound 0.04 µM): 0.824
relative viability ([2]; first compound 0.1265 µM): 0.753
relative viability ([2]; first compound 1.265 µM): 0.834
relative viability ([2]; first compound 4 µM): 0.663
relative viability ([3]; first compound 0.04 µM): 0.772
relative viability ([3]; first compound 0.1265 µM): 1.02
relative viability ([3]; first compound 1.265 µM): 0.811
relative viability ([3]; first compound 4 µM): 0.718
relative viability ([4]; first compound 0.08 µM): 0.759
relative viability ([4]; first compound 0.253 µM): 0.681
relative viability ([4]; first compound 0.8 µM): 0.754
relative viability ([4]; first compound 2.53 µM): 0.768
relative viability ([4]; first compound 8 µM): 0.677
